The subject of the experiment is Ad5. Put plainly: Ad5 genome replication assay (cell-based QPCR) in A549 cells. Conditions: Human adenovirus sp., A549, 72 h, read-out: Ad5 qPCR EC50 (μM). The procedure:
Compounds of the present invention were tested for potency against Ad5 in an Ad5 genome replication assay, a cell-based QPCR assay of Ad5 genome replication in A549 cells, a human lung carcinoma cell line. Serotype of human Ad5, used in this replication assay can also replicate in a NZW rabbit model of adenoviral ocular keratitis.
EC50 values (μM) for inhibition of adenoviral replication were determined by QPCR. Briefly, 10,000 cultured A549 cells were inoculated with 25,000 pfu/well for 3 hrs in 2% FBS F12-K A549 culture media. Following inoculation, A549 cells were treated with log unit dilutions of compound of Formula I (˜10 μM thru˜10 pM) in 10% FBS F12-K culture media with 0.3% DMSO for an additional 3 days. Cell viability was assessed with Alamar Blue (10 μl/well for 2 hrs; fluorescence Ex353; Em595 nm). Plates were washed 3 times with 125 μl PBS, cell lysates were prepared for QPCR analysis using Cells to SNP kit (Life Technologies). Ad5 genome levels per cell were determined with RNaseP and Ad5 hexon Taqman Assays (Life Technologies). EC50, the concentration that inhibited Ad5 genome replication formation by 50%, was estimated from plots of Ad5 genomes/cell vs. compound concentration.
Background: In qPCR the cycle at which signal appears reflects the starting amount.
In the case of `CC(C)CC1c2[nH]c3ccc(Cl)cc3c2CCN1C(=O)COc1ccccc1` (stereo not shown) [Compound 71], the EC50 was 0.1 to 1 µM.

Turning to `O=C(CCN1CCC(F)(F)CC1)N1CCc2c([nH]c3ccc(Cl)cc23)C1CC1CCCC1` (stereo not shown) [Compound 9], the EC50 is 0.1 to 1 µM.

With `CC(C)CC1c2[nH]c3ccc(Cl)cc3c2CCN1C(=O)CCN1CCCCC1` (stereo not shown) [Compound 3], the half-maximal effective concentration (EC50) was greater than 1 µM.

As to `CC(C)C[C@H]1c2[nH]c3ccc(Cl)cc3c2CCN1C(=O)CCN1CCC(F)CC1` [Compound 28, (S)-1-(6-chloro-1-isobutyl-3,4-dihydro-1H-pyrido[3,4-b]indol-2(9H)-yl)-3-(4-fluoropiperidin-1-yl)propan-1-one], the EC50 lay within 0.1 to 1 µM.

In the case of `CC(C)C[C@H]1c2[nH]c3ccc(Br)cc3c2CCN1C(=O)CCN1CC[C@H](F)C1` [Compound 105], the EC50 fell in the range of 0.1 to 1 µM.

As for `O=C(CCC1CCCCC1)N1CCc2c([nH]c3ccc(Cl)cc23)C1CN1CCCCC1` (stereo not shown) [Compound 80], the EC50 is greater than 1 µM.

In the case of `CC(C)CC1c2[nH]c3ccc(Cl)cc3c2CCN1C(=O)CCN1CCC(C)CC1` (stereo not shown) [Compound 15], the EC50 is greater than 1 µM.

Take `O=C(CCN1CCC(C(F)F)CC1)N1CCc2c([nH]c3ccc(Cl)cc23)C1CC1CCCC1` (stereo not shown) [Compound 31]: the EC50 is 0.1 to 1 µM.

For the compound `CC(C)CC1c2[nH]c3ccc(Cl)cc3c2CCN1C(=O)COC1CCCCC1` (stereo not shown) [Compound 68], the EC50 fell in the range of 0.1 to 1 µM.

Take `CC(C)C[C@H]1c2[nH]c3ccc(Cl)cc3c2CCN1C(=O)CCN1CCC(C(F)(F)F)CC1` [Compound 20, (S)-1-(6-chloro-1-isobutyl-3,4-dihydro-1H-pyrido[3,4-b]indol-2(9H)-yl)-3-(4-(trifluoromethyl)piperidin-1-yl)propan-1-one]: the EC50 fell in the range of 0.1 to 1 µM.

Turning to `CC(C)C[C@H]1c2[nH]c3ccc(Cl)cc3c2CCN1C(=O)OCCN1CC[C@H](F)C1` [Compound 38], the EC50 is 0.1 to 1 µM.

With `CC(C)CC1c2[nH]c3ccc(Cl)cc3c2CCN1C(=O)CN1CCC(F)(F)C1` (stereo not shown) [Compound 84], the EC50 was in the range of 0.1 to 1 µM.

With `Cc1nnc(CCC(=O)N2CCc3c([nH]c4ccc(Cl)cc34)C2CC(C)C)o1` (stereo not shown) [Compound 82], the EC50 lay within 0.1 to 1 µM.

For the compound `O=C(CCN1CCC(F)(F)CC1)N1CCc2c([nH]c3ccc(Cl)cc23)C1c1ccc(F)cc1` (stereo not shown) [Compound 5], the EC50 was greater than 1 µM.

In the case of `CC(C)CC1c2[nH]c3ccc(Cl)cc3c2CCN1C(=O)c1ccncc1` (stereo not shown) [Compound 65], the EC50 was in the range of 0.1 to 1 µM.

In the case of `COc1ccc2[nH]c3c(c2c1)CCN(C(=O)CCN1CCC(F)(F)CC1)C3CC(C)C` (stereo not shown) [Compound 51], the EC50 lay within 0.1 to 1 µM.

As for `CC(C)CC1c2[nH]c3ccc(Cl)cc3c2CCN1C(=O)c1ccccn1` (stereo not shown) [Compound 52], the EC50 was in the range of 0.1 to 1 µM.

As to `CC(C)CC1c2[nH]c3ccc(Cl)cc3c2CCN1CC(=O)NC1CCCCC1` (stereo not shown) [Compound 79], the EC50 lay within 0.1 to 1 µM.

Take `CC(C)C[C@H]1c2[nH]c3ccc(Cl)cc3c2CCN1C(=O)CNC1CC(F)(F)C1` [Compound 104, (S)-1-(6-chloro-1-isobutyl-3,4-dihydro-1H-pyrido[3,4-b]indol-2(9H)-yl)-2-((3,3-difluorocyclobutyl)amino)ethanone]: the EC50 was less than 0.1 µM.

`CC(C)CC1c2[nH]c3ccc(Cl)cc3c2CCN1C(=O)OCCN1CCC(F)CC1` (stereo not shown) [Compound 23]: the EC50 is greater than 1 µM.

As for `CC(C)CC1c2[nH]c3ccc(Cl)cc3c2CCN1Cc1ccccn1` (stereo not shown) [Compound 87], the EC50 was 0.1 to 1 µM.

For `CC(C)CC1c2[nH]c3ccc(Cl)cc3c2CCN1C(=O)C1CCN(CCC(F)(F)F)CC1` (stereo not shown) [Compound 50], the EC50 was 0.1 to 1 µM.

In the case of `CC(C)CC1c2[nH]c3ccc(Cl)cc3c2CCN1C(=O)[C@@H](N)Cc1ccccc1` (stereo partly shown) [Compound 76], the half-maximal effective concentration (EC50) was greater than 1 µM.

As to `CC(C)CC1c2[nH]c3ccc(Cl)cc3c2CCN1c1nc(CN2CCC(F)(F)CC2)co1` (stereo not shown) [Compound 56], the EC50 fell in the range of 0.1 to 1 µM.

With `CC(C)CC1c2[nH]c3ccc(Cl)cc3c2CCN1C(=O)C1CN(CC(C)C)C1` (stereo not shown) [Compound 39], the EC50 is greater than 1 µM.

Take `CC(C)(C)CC1c2[nH]c3ccc(Cl)cc3c2CCN1C(=O)CCN1CCC(F)(F)CC1` (stereo not shown) [Compound 10]: the EC50 is 0.1 to 1 µM.

As for `CC(C)CC1c2[nH]c3ccc(Cl)cc3c2CCN1C(=O)CCC1CCN(CC(F)F)CC1` (stereo not shown) [Compound 46], the EC50 lay in the range of 0.1 to 1 µM.

On to `CC(C)CC1c2[nH]c3ccc(Cl)cc3c2CCN1C(=O)CN1CCC(C(F)(F)F)CC1` (stereo not shown) [Compound 8], for which the EC50 was in the range of 0.1 to 1 µM.

Turning to `CC(C)CC1c2[nH]c3ccc(Cl)cc3c2CCN1C(=O)CCN1CCC(F)(F)C1` (stereo not shown) [Compound 11], the EC50 was in the range of 0.1 to 1 µM.

Regarding `CC(C)CC1c2[nH]c3ccc(Cl)cc3c2CCN1CC1CC1` (stereo not shown) [Compound 96], the EC50 lay in the range of 0.1 to 1 µM.

`CC(C)CC1c2[nH]c3ccc(Cl)cc3c2CCN1C(=O)CC(O)c1ccccc1` (stereo not shown) [Compound 48]: the EC50 lay within 0.1 to 1 µM.

Regarding `CC(C)CC1c2[nH]c3ccc(Cl)cc3c2CCN1C(=O)OCCN1CC(F)(F)C1` (stereo not shown) [Compound 26], the EC50 lay within 0.1 to 1 µM.

As to `CC(C)CC1c2[nH]c3ccc(Cl)cc3c2CCN1C(=O)CNCc1ccco1` (stereo not shown) [Compound 89], the EC50 is greater than 1 µM.

Take `CC(C)CC1c2[nH]c3ccc(Cl)cc3c2CCN1C(=O)C1(C#N)CC1` (stereo not shown) [Compound 25]: the EC50 is greater than 1 µM.

Consider `CC(C)CC1c2[nH]c3ccc(Cl)cc3c2CCN1C(=O)CCN1CCOCC1` (stereo not shown) [Compound 2], for which the EC50 was greater than 1 µM.

Consider `CC(C)CC1c2[nH]c3ccc(Cl)cc3c2CCN1C(=O)COC1CCN(CC(F)F)CC1` (stereo not shown) [Compound 53], for which the EC50 is greater than 1 µM.

As to `CC(C)C[C@H]1c2[nH]c3ccc(Cl)cc3c2CCN1C(=O)CCNC1CCC(F)(F)CC1` [Compound 34], the EC50 is greater than 1 µM.

Take `CC(C)CC1c2[nH]c3ccc(Cl)cc3c2CCN1C(=O)CNCc1ccno1` (stereo not shown) [Compound 90]: the EC50 was greater than 1 µM.

For the compound `CC(C)CC1c2[nH]c3ccc(Cl)cc3c2CCN1C(=O)CN1CC[C@H](F)C1` (stereo partly shown) [Compound 49], the EC50 was greater than 1 µM.

Turning to `CC(C)CC1c2[nH]c3ccc(Cl)cc3c2CCN1C(=O)OCCN1CCC(F)(F)C1` (stereo not shown) [Compound 18], the EC50 was 0.1 to 1 µM.

The EC50 is the midpoint of the concentration-response curve.

The values above are taken from US20130116219A1, “ANTIMICROBIAL CARBOLINE COMPOUNDS” (ALCON RESEARCH, LTD., priority 2011, published 2013).
